Values joined by “and” are separate entries in the source; they are usually repeats but may differ in a detail not shown here. Identical values can stand only once.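 Five compound concentrations were applied to cells in 96-well plates for 48 hours; endpoints were derived by simple linear interpolation of the resulting dose-response curve. The concentration for 50% growth inhibition is given as GI50. TGI denotes the concentration required for complete inhibition of growth.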 *1 amine or outer side, *2 acyl side, *3 side chain or, on linkers, in order; H or OH if unused. Where a SMILES comes first, the peptide text is derived from it. [ ]: non-standard residue; d: D form. X56 = CC[C@H](C)[C@H](OC(=O)[C@@H](C)[C@@H](CC)N[*:1])C(=O)[*:2]; X32 = C[C@H](N[*:1])C(=O)C(C)(C)C(=O)[*:2]; NMeY = CN[C@@H](Cc1ccc(O)cc1)C(=O)O; NMeL = CN[C@@H](CC(C)C)C(=O)O; NMeV = CN[C@H](C(=O)O)C(C)C

TGI and GI50 data for 12 molecules are collected here from PubChem BioAssay (NCI).

Among the test systems are EKVX NSCLC; HL-60(TB) leukemia; HOP-92 NSCLC; SF-539 CNS; SK-MEL-28 melanoma; SW-620 colon; UO-31 renal; LOX IMVI melanoma; TK-10 renal.
Holding throughout (assay): DTP human tumour cell line panel, 48 h

Regarding `COc1ccc(-c2c(N)[n+]([O-])c3ccccc3[n+]2[O-])cc1OC`, the TGI in the assay on EKVX NSCLC, in the assay with HL-60(TB) leukemia, in the assay with HOP-92 NSCLC, in the assay with SF-539 CNS, with SK-MEL-28 melanoma and with SW-620 colon was > 100 µM in each case. For the same molecule, the TGI in the assay on UO-31 renal was > 100 µM.

Turning to `CC1C(=O)O[C@H]2C1CC[C@@]1(C)[C@H](O)CC[C@@]13C[C@]2(O)OO3` (stereo not given in full), the TGI in the assay with HL-60(TB) leukemia, in the assay on HOP-92 NSCLC, with LOX IMVI melanoma, in the assay with SK-MEL-28 melanoma, in the assay on SW-620 colon and in the assay on TK-10 renal was > 100 µM throughout. For the same molecule, in the assay on UO-31 renal, the TGI was > 100 µM.

With `CCC(C(=O)c1ccccc1)C(CCCC(=O)Nc1c(C)cccc1C)N=O` (stereo not given), the TGI with EKVX NSCLC, in the assay on HL-60(TB) leukemia, in the assay with HOP-92 NSCLC, with SF-539 CNS, in the assay with SK-MEL-28 melanoma and with SW-620 colon was > 100 µM each time. Also, the TGI with TK-10 renal and in the assay with UO-31 renal was > 100 µM each time.

For the molecule `O=C(NCc1ccncc1)C1COc2cc(-c3cc(=O)c4ccccc4o3)ccc2O1` (stereo not given), the TGI in the assay on EKVX NSCLC, in the assay on HL-60(TB) leukemia, in the assay with HOP-92 NSCLC, in the assay with LOX IMVI melanoma, in the assay on SF-539 CNS and in the assay with SK-MEL-28 melanoma was > 100 µM each time. Also, the TGI in the assay on SW-620 colon, in the assay on TK-10 renal and in the assay on UO-31 renal was > 100 µM each time.

Consider `N#CC1C2CCC3(CC2CCN1C(=O)c1ccccc1)OCCO3` (stereo not given), for which the TGI in the assay on EKVX NSCLC, with HL-60(TB) leukemia, in the assay on HOP-92 NSCLC, in the assay with LOX IMVI melanoma, with SF-539 CNS and in the assay with SK-MEL-28 melanoma was > 100 µM in each case. The TGI with SW-620 colon, in the assay on TK-10 renal and in the assay on UO-31 renal was > 100 µM each time.

As for `C1=Nc2ccccc2C=Nc2ccccc2C=Nc2ccccc2C=Nc2ccccc21.[Cl-].[Pt+2]`, the GI50 in the assay with EKVX NSCLC was 37.5 µM; in the assay on HL-60(TB) leukemia, 3.95 µM; in the assay on HOP-92 NSCLC, 19.3 µM; with LOX IMVI melanoma, 29.9 µM; in the assay on SF-539 CNS, 23.1 µM; with SK-MEL-28 melanoma, 14.8 µM. Besides, the GI50 in the assay with SW-620 colon is 27.6 µM; in the assay with TK-10 renal, 45.7 µM; in the assay with UO-31 renal it was 20.8 µM. Besides, the TGI is > 100 µM with EKVX NSCLC; 22.4 µM in the assay on HL-60(TB) leukemia; 48.7 µM in the assay on HOP-92 NSCLC; > 100 µM in the assay on LOX IMVI melanoma; 54.1 µM in the assay on SF-539 CNS; 64.4 µM in the assay on SK-MEL-28 melanoma. For the same molecule, the TGI in the assay with SW-620 colon is > 100 µM; with TK-10 renal, > 100 µM; in the assay on UO-31 renal, 45.5 µM.

For the molecule `Cc1ccc(Sc2sc(-c3ccccc3)nc2[P+](c2ccccc2)(c2ccccc2)c2ccccc2)cc1`, the GI50 was 0.266 µM in the assay with EKVX NSCLC; 0.194 µM with HL-60(TB) leukemia; 0.186 µM in the assay with HOP-92 NSCLC; 0.276 µM in the assay on LOX IMVI melanoma; 0.375 µM in the assay with SF-539 CNS; 0.605 µM in the assay with SK-MEL-28 melanoma. Further, the GI50 in the assay on SW-620 colon was 0.319 µM; in the assay with TK-10 renal, 0.336 µM; in the assay with UO-31 renal, 0.24 µM. Also, the TGI in the assay with EKVX NSCLC is 0.932 µM; in the assay with HL-60(TB) leukemia, 0.521 µM; in the assay on HOP-92 NSCLC it was 0.563 µM; in the assay with LOX IMVI melanoma, 0.901 µM; in the assay on SF-539 CNS, 1.47 µM; with SK-MEL-28 melanoma, 1.88 µM. The TGI amounted to 1.26 µM in the assay with SW-620 colon, 1.64 µM in the assay with TK-10 renal and 0.811 µM in the assay on UO-31 renal.

Turning to `O=c1c2cccnc2ncn1CCN1CCCC1`, the TGI in the assay with EKVX NSCLC, in the assay on HOP-92 NSCLC, in the assay with LOX IMVI melanoma, with SF-539 CNS, in the assay with SK-MEL-28 melanoma and in the assay with SW-620 colon was > 100 µM in each case. The TGI in the assay on TK-10 renal and in the assay on UO-31 renal was > 100 µM each time.

On to `N#Cc1ccc2c(c1)C(=O)c1c-2n(CCCN)c(=O)c2cc([N+](=O)[O-])ccc12`, for which the GI50 was 0.537 µM in the assay on EKVX NSCLC; 1.37 µM with HL-60(TB) leukemia; 1.08 µM in the assay on HOP-92 NSCLC; 0.0696 µM with LOX IMVI melanoma; 0.219 µM in the assay with SF-539 CNS; 0.975 µM in the assay with SK-MEL-28 melanoma. Also, the GI50 was 0.0291 µM with SW-620 colon, 1.74 µM in the assay on TK-10 renal and 0.0605 µM with UO-31 renal. Further, the TGI in the assay with EKVX NSCLC was 1.93 µM; with HL-60(TB) leukemia, 3.56 µM; in the assay on HOP-92 NSCLC it was 2.46 µM; in the assay with LOX IMVI melanoma it was 1.08 µM; with SF-539 CNS, 1.31 µM; in the assay with SK-MEL-28 melanoma, 2.59 µM. Besides, the figures for the TGI in the assay with SW-620 colon, with TK-10 renal and in the assay with UO-31 renal were 0.568 µM, 3.72 µM and 1.44 µM, respectively.

Regarding `CC[C@H](C)[C@@H]1OC(=O)[C@@H](C)[C@@H](CC)NC(=O)[C@H](C)NC(=O)C(C)(C)C(=O)[C@H](C)NC(=O)[C@H](Cc2ccc(OC)cc2)N(C)C(=O)[C@H](C(C)C)N(C)C(=O)CNC(=O)[C@H](CC(C)C)N(C)C(=O)CNC1=O` (cyclo(A[X56]G[NMeL]G[NMeV][NMeY](Me)[X32])), the GI50 with EKVX NSCLC is 0.0668 µM; with HOP-92 NSCLC, 0.0156 µM; in the assay with LOX IMVI melanoma it was 0.0392 µM; in the assay with SF-539 CNS, 0.0239 µM; with SK-MEL-28 melanoma, 0.0727 µM and < 0.0164 µM; in the assay with SW-620 colon, < 0.0316 µM. In addition, the 50% growth inhibitory concentration (GI50) with TK-10 renal is 0.0196 µM. Further, the TGI in the assay on EKVX NSCLC is 1.82 µM and 8.44 µM; in the assay with HOP-92 NSCLC it was 0.238 µM and 0.0316 µM; in the assay on SF-539 CNS it was 0.0508 µM and 0.126 µM; in the assay on SK-MEL-28 melanoma, 0.165 µM; in the assay on SW-620 colon it was > 39.1 µM; with TK-10 renal, 0.299 µM and 0.0735 µM. Besides, the TGI in the assay on UO-31 renal is 0.383 µM and 0.428 µM.

Take `Cc1ccc(Oc2ccc([N+](=O)[O-])cc2[N+](=O)[O-])c(C)c1`: the TGI in the assay with EKVX NSCLC was > 100 µM; with HL-60(TB) leukemia, 65.2 µM; in the assay with SF-539 CNS, > 100 µM; in the assay on SK-MEL-28 melanoma, > 100 µM; in the assay on SW-620 colon, > 100 µM; in the assay with TK-10 renal, > 100 µM. For the same molecule, the TGI with UO-31 renal was > 100 µM.

For `CC1(O)CCC2(C#N)CCC1C2O` (stereo not given), the TGI in the assay on EKVX NSCLC is > 100 µM; with HL-60(TB) leukemia, > 100 µM; in the assay with LOX IMVI melanoma, 41.9 µM; in the assay with SF-539 CNS, > 100 µM; in the assay on SK-MEL-28 melanoma it was > 100 µM; with TK-10 renal, > 100 µM. Also, in the assay on UO-31 renal, the TGI is > 100 µM.

One may read the TGI as the concentration at which net growth stops. In general, GI50 refers to the concentration that inhibits growth by half.
